Measured values as given in US8513423B2 (Janssen Pharmaceutica, NV, priority 2010, dated 2013).

Experiments:
[1] = biological target: T1, purified wild type MGL (wt-MGLL 6H-11-313) (Homo sapiens, UniProt Q99685); experiment: MGL enzyme activity assay (4MU-B cleavage), wild type MGL; type: biochemical; details: 10 μM 4MU-B, 5 nM enzyme, 37° C., read-out: MGL wild type inh IC50
T1 construct: purified wild type MGL (wt-MGLL 6H-11-313)
T1 sequence (Q99685 1-303): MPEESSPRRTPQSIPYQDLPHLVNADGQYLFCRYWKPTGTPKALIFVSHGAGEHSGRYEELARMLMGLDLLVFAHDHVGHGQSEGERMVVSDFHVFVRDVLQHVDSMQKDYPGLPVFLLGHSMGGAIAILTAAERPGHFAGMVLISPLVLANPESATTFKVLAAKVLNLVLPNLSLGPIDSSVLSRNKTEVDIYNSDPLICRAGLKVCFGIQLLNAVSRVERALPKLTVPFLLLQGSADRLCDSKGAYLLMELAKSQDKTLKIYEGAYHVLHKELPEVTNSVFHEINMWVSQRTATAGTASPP
How it was run: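 Enzyme (5 nM final) cleaved 4MU-B (10 μM final) in 20 mM PIPES pH 7.0 with 150 mM NaCl and 0.001% Tween 20. Compounds were tested at 17 to 0.0003 μM final. Fluorescence (ex 335/em 440 nm) was monitored at 37° C for 5 min, and IC50 was fitted from fractional activity versus inhibitor concentration.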

[2] = tested on: CFA-induced paw radiant heat hypersensitivity; experiment: CFA-induced paw radiant heat hypersensitivity; type: in vivo; details: rat; 30 mg/kg, p.o.; last time point 300 min; group mean values, maximum % reversal at any time point
Method: Each rat was placed in a test chamber on a warm glass surface and allowed to acclimate for approximately 10 min. A radiant thermal stimulus (beam of light) was focused through the glass onto the plantar surface of each hind paw in turn. The thermal stimulus was automatically shut off by a photoelectric relay when the paw was moved or when the cut-off time was reached (20 sec for radiant heat at ˜5 amps). An initial (baseline) response latency to the thermal stimulus was recorded for each animal prior to the injection of complete Freund's adjuvant (CFA). Twenty-four hours following intraplantar CFA injection, the response latency of the animal to the thermal stimulus was re-evaluated and compared to the animal's baseline response time. […] Post-compound treatment withdrawal latency was assessed at fixed time intervals, typically 30, 60, 120, 180, and 300 min.
The percent reversal (% R) of hypersensitivity was calculated in one of two different ways: 1) using group mean values or 2) using individual animal values. […]
Method 1. For all compounds, the % R of hypersensitivity was calculated using the mean value for groups of animals at each time point according to the following formula: % reversal=[(group treatment response−group CFA response)/(group baseline response−group CFA response)]×100 Results are given for the maximum % reversal observed for each compound at any time point tested. […]

SMILES | IC50 [1] | Method 1: peak % reversal [2]
O=C(c1nccs1)N1CCC(C2CN(C(=O)c3sc4cc(C(F)(F)F)ccc4c3Cl)C2)CC1 [Cpd 29, 4-(1-{[3-Chloro-6-(trifluoromethyl)-1-benzothiophen-2-yl]carbonyl}azetidin-3-yl)-1-(1,3-thiazol-2-ylcarbonyl)piperidine] | 6 nM | 17.9%
Cc1c(C(=O)N2CC(C3CCN(C(=O)c4nccs4)CC3)C2)sc2cc(C(F)(F)F)ccc12 [Cpd 20, 4-(1-{[3-Methyl-6-(trifluoromethyl)-1-benzothiophen-2-yl]carbonyl}azetidin-3-yl)-1-(1,3-thiazol-2-ylcarbonyl)piperidine] | < 5 nM | −6.7%
